Assay results reported in patent US20250108038A1 (priority 2023, published 2025).
Several values for one entry are separate records, joined by “and”; a condition that tells them apart may be missing. Equal values may be shown once.

Columns and labels:
[1] = Pharmacokinetics after single oral administration to beagle dogs; type: in vivo; details: for plasma concentration of Compound I-17/I-19 (as titled): single PO 80 mg/kg (as titled)
Procedure: The concentrations of the analytes in the plasma were quantified by liquid chromatography tandem mass spectrometry (LC-MS/MS).
The bioanalytical assay provided a lower limit of quantification (LLOQ) of 1.0 ng/mL and an upper limit of quantification (ULOQ) of 3000 ng/mL for all the analytes. The data of plasma concentration vs. time were analyzed using Phoenix WinNonlin 8.3 to determine the PK properties of the analytes.
The test articles were administered orally by gavage. The nominal dose volume was 5 mL/kg for both analogs.
The observation included appearance, behavior, morbidity and mortality.
Approximately 0.5 mL blood was collected at each scheduled time point from the peripheral veins.
The plasma samples were placed in microcentrifuge tubes and stored at −70+10° C. until analysis.

MDR1 = MDR1 (Homo sapiens, UniProt P08183); assay: Vesicular transport inhibition assay, MDR1 (N-methyl quinidine)
Procedure: Vesicular transport assays were performed with inside-out membrane vesicles prepared from cells overexpressing human ABC (efflux) transporters. The transporters were expressed by SOLVO Biotechnology in mammalian (HEK293) cells. The mammalian cells were stably transfected with the ABC transporter of interest. The assays were conducted according to the actual SOLVO VT assay protocols (PR-ASY-VT-General Protocol for Vesicular Transport Inhibition Assays).
The membrane vesicle suspension was mixed with the ice-cold transport buffer, then the probe substrate solution was added. […] (for BCRP and MDR1). […] Reactions were quenched by the addition of 200 μL of ice-cold washing buffer and immediate filtration via glass fiber filters mounted to a 96-well plate (filter plate). The filters were washed (5×200 μL of ice-cold washing buffer), dried and the amount of substrate inside the filtered vesicles was determined by liquid scintillation counting.
Incubation with AMP provided background activity values for all data points.

[2] = 0.14 μM nominal, follow-up assay
[3] = 1.24 μM nominal, follow-up assay
[4] = 11.11 μM nominal, follow-up assay
[5] = 33.33 μM nominal, follow-up assay
[6] = 100.00 μM nominal, follow-up assay

Chain of MDR1 (P08183 whole entry): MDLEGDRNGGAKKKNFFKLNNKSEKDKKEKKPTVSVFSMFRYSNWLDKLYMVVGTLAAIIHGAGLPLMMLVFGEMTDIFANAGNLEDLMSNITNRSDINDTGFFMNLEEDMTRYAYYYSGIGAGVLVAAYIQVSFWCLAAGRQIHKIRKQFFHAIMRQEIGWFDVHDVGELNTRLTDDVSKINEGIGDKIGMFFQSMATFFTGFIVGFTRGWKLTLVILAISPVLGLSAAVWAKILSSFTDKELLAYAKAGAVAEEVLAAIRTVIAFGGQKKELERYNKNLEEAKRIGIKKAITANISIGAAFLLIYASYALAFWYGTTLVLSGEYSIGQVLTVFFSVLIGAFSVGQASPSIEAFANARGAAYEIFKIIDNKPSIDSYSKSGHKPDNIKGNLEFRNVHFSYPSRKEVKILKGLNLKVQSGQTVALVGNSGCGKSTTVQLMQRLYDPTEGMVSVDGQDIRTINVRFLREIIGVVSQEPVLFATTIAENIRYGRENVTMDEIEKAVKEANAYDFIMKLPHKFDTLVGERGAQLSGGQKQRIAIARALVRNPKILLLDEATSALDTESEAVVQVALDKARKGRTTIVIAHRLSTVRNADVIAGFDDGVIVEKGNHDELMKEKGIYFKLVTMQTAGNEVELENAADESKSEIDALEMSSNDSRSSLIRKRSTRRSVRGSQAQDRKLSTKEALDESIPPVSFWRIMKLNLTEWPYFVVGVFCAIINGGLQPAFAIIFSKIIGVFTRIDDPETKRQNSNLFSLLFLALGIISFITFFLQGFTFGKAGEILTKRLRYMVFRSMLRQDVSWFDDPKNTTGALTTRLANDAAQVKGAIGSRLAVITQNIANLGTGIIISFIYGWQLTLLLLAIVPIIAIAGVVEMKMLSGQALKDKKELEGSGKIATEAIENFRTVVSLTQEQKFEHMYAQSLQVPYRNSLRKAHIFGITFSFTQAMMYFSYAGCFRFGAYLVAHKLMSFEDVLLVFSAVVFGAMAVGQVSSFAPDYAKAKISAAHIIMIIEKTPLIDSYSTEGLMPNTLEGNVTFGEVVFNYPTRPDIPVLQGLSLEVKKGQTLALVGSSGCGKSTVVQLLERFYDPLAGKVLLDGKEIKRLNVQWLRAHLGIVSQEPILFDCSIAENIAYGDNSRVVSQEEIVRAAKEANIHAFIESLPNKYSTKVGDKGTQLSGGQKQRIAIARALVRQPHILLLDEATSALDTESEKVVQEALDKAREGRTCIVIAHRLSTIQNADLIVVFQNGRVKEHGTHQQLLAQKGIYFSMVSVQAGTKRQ

In the case of Clc1ccc(C2(OCC3OCCO3)c3ccccc3C3=NCCN32)cc1 (stereo not drawn) [Compound I-19], the “plasma concentration of Compound I-17/I-19” value ([1]; single PO 10 mg/kg, 0.500 h, male mean) is reported as 227 ng/mL, the “plasma concentration of Compound I-17/I-19” value ([1]; single PO 10 mg/kg, 1.00 h, female individual, 10 mg/kg) is reported as 258 ng/mL and 262 ng/mL and the “plasma concentration of Compound I-17/I-19” value ([1]; single PO 10 mg/kg, 1.00 h, female mean) is reported as 260 ng/mL. For the same compound, the “plasma concentration of Compound I-17/I-19” value ([1]; single PO 10 mg/kg, 1.00 h, male individual, 10 mg/kg) was 312 ng/mL and 281 ng/mL, the “plasma concentration of Compound I-17/I-19” value ([1]; single PO 10 mg/kg, 1.00 h, male mean) was 297 ng/mL and the “plasma concentration of Compound I-17/I-19” value ([1]; single PO 10 mg/kg, 2.00 h, female individual, 10 mg/kg) was 186 ng/mL and 240 ng/mL. For the same compound, the “plasma concentration of Compound I-17/I-19” value ([1]; single PO 10 mg/kg, 2.00 h, female mean) was 213 ng/mL, the “plasma concentration of Compound I-17/I-19” value ([1]; single PO 10 mg/kg, 2.00 h, male individual) was 181 ng/mL and the “plasma concentration of Compound I-17/I-19” value ([1]; single PO 10 mg/kg, 2.00 h, male mean) was 181 ng/mL. The “plasma concentration of Compound I-17/I-19” value ([1]; single PO 10 mg/kg, 4.00 h, female individual, 10 mg/kg) was 50.7 ng/mL and 78.2 ng/mL, the “plasma concentration of Compound I-17/I-19” value ([1]; single PO 10 mg/kg, 4.00 h, female mean) was 64.4 ng/mL and the “plasma concentration of Compound I-17/I-19” value ([1]; single PO 10 mg/kg, 4.00 h, male individual, 10 mg/kg) was 64.2 ng/mL and 67.7 ng/mL. For the same compound, the “plasma concentration of Compound I-17/I-19” value ([1]; single PO 10 mg/kg, 4.00 h, male mean) was 66.0 ng/mL, the “plasma concentration of Compound I-17/I-19” value ([1]; single PO 10 mg/kg, 6.00 h, female individual, 10 mg/kg) was 27.8 ng/mL and 50.5 ng/mL and the “plasma concentration of Compound I-17/I-19” value ([1]; single PO 10 mg/kg, 6.00 h, female mean) was 39.1 ng/mL. The “plasma concentration of Compound I-17/I-19” value ([1]; single PO 10 mg/kg, 6.00 h, male individual, 10 mg/kg) was 27.3 ng/mL and 22.7 ng/mL, the “plasma concentration of Compound I-17/I-19” value ([1]; single PO 10 mg/kg, 6.00 h, male mean) was 25.0 ng/mL and the “plasma concentration of Compound I-17/I-19” value ([1]; single PO 10 mg/kg, 8.00 h, female individual, 10 mg/kg) was 14.6 ng/mL and 28.7 ng/mL. For the same compound, the “plasma concentration of Compound I-17/I-19” value ([1]; single PO 10 mg/kg, 8.00 h, female mean) was 21.7 ng/mL, the “plasma concentration of Compound I-17/I-19” value ([1]; single PO 10 mg/kg, 8.00 h, male individual, 10 mg/kg) was 15.2 ng/mL and 9.16 ng/mL and the “plasma concentration of Compound I-17/I-19” value ([1]; single PO 10 mg/kg, 8.00 h, male mean) was 12.2 ng/mL. For the same compound, the “plasma concentration of Compound I-17/I-19” value ([1]; single PO 10 mg/kg, 24.0 h, female individual) was “BQL”, the “plasma concentration of Compound I-17/I-19” value ([1]; single PO 10 mg/kg, 24.0 h, male individual) was “BQL” and the Clinical observation ([1]; single PO 10 mg/kg, beagle dogs) was “diarrhea at 24 hours post-dose”. For the same compound, the “plasma concentration of Compound I-17/I-19 (as titled)” value (“plasma concentration … (as titled)” below) ([1]; 0.500 h, female individual, 80 mg/kg) was 160 ng/mL and 83.0 ng/mL, the “plasma concentration … (as titled)” value ([1]; 0.500 h, female mean) was 121 ng/mL and the “plasma concentration … (as titled)” value ([1]; 0.500 h, male individual, 80 mg/kg) was 102 ng/mL and 91.6 ng/mL. The “plasma concentration … (as titled)” value ([1]; 0.500 h, male mean) was 96.8 ng/mL, the “plasma concentration … (as titled)” value ([1]; 2.00 h, female individual) was 113 ng/mL and the “plasma concentration … (as titled)” value ([1]; 2.00 h, female mean) was 113 ng/mL. The “plasma concentration … (as titled)” value ([1]; 2.00 h, male individual, 80 mg/kg) was 94.9 ng/mL and 78.9 ng/mL, the “plasma concentration … (as titled)” value ([1]; 2.00 h, male mean) was 86.9 ng/mL and the “plasma concentration … (as titled)” value ([1]; 4.00 h, female individual, 80 mg/kg) was 87.3 ng/mL and 76.1 ng/mL. For the same compound, the “plasma concentration … (as titled)” value ([1]; 4.00 h, female mean) was 81.7 ng/mL, the “plasma concentration … (as titled)” value ([1]; 4.00 h, male individual, 80 mg/kg) was 87.4 ng/mL and 60.3 ng/mL and the “plasma concentration … (as titled)” value ([1]; 4.00 h, male mean) was 73.8 ng/mL. The “plasma concentration … (as titled)” value ([1]; 6.00 h, female individual, 80 mg/kg) was 49.1 ng/mL and 57.9 ng/mL, the “plasma concentration … (as titled)” value ([1]; 6.00 h, female mean) was 53.5 ng/mL and the “plasma concentration … (as titled)” value ([1]; 6.00 h, male individual, 80 mg/kg) was 60.4 ng/mL and 35.4 ng/mL. For the same compound, the “plasma concentration … (as titled)” value ([1]; 6.00 h, male mean) was 47.9 ng/mL, the “plasma concentration … (as titled)” value ([1]; 8.00 h, female individual, 80 mg/kg) was 32.5 ng/mL and 52.0 ng/mL and the “plasma concentration … (as titled)” value ([1]; 8.00 h, female mean) was 42.3 ng/mL. The “plasma concentration … (as titled)” value ([1]; 8.00 h, male individual, 80 mg/kg) was 43.8 ng/mL and 20.9 ng/mL, the “plasma concentration … (as titled)” value ([1]; 8.00 h, male mean) was 32.4 ng/mL and the “plasma concentration … (as titled)” value ([1]; 24.0 h, female individual, 80 mg/kg) was 6.70 ng/mL and 18.2 ng/mL. The “plasma concentration … (as titled)” value ([1]; 24.0 h, female mean) was 12.4 ng/mL, the “plasma concentration … (as titled)” value ([1]; 24.0 h, male individual, 80 mg/kg) was 7.39 ng/mL and 4.28 ng/mL and the “plasma concentration … (as titled)” value ([1]; 24.0 h, male mean) was 5.83 ng/mL. The “plasma concentration … (as titled)” value ([1]; […] h, female mean) was 116 ng/mL, the “plasma concentration … (as titled)” value ([1]; […] h, male mean) was 123 ng/mL and the ATP-dependent transport (MDR1; [2]) was 3,812.00 ± 42.21 cpm. For the same compound, the “Relative ATP-dependent transport” value (MDR1; [2]) was 101.02 ± 3.23 % of control, the Relative inhibition (MDR1; [2]) was −1% and the ATP-dependent transport (MDR1; [3]) was 3,744.33 ± 56.10 cpm. For the same compound, the “Relative ATP-dependent transport” value (MDR1; [3]) was 99.23 ± 3.33 % of control, the Relative inhibition (MDR1; [3]) was 1% and the ATP-dependent transport (MDR1; 10.00 μM nominal) was 1,845.67 ± 148.09 cpm. For the same compound, the “Relative ATP-dependent transport” value (MDR1; 10.00 μM nominal) was 51.19 ± 4.18 % of control, the Relative inhibition (MDR1; 10.00 μM nominal) was 49% and the ATP-dependent transport (MDR1; [4]) was 2,730.67 ± 83.62 cpm. For the same compound, the “Relative ATP-dependent transport” value (MDR1; [4]) was 72.36 ± 3.10 % of control, the Relative inhibition (MDR1; [4]) was 28% and the ATP-dependent transport (MDR1; [5]) was 1,363.00 ± 46.72 cpm. For the same compound, the “Relative ATP-dependent transport” value (MDR1; [5]) was 36.12 ± 1.64 % of control, the Relative inhibition (MDR1; [5]) was 64% and the ATP-dependent transport (MDR1; 100.00 μM nominal) was 2.84 ± 21.41 cpm. For the same compound, the “Relative ATP-dependent transport” value (MDR1; 100.00 μM nominal) was 7.89 ± 0.61 % of control, the Relative inhibition (MDR1; 100.00 μM nominal) was 92% and the ATP-dependent transport (MDR1; [6]) was 407.00 ± 29.39 cpm. For the same compound, the “Relative ATP-dependent transport” value (MDR1; [6]) was 10.79 ± 0.84 % of control, the Relative inhibition (MDR1; [6]) was 89% and the “maximum inhibition of MDR1-mediated NMQ accumulation” value (MDR1; 2-concentration assay, up to 100 μM (Compound A up to 50 μM)) was 92%. The Maximum % inhibition (MDR1; MDR1, inside-out membrane vesicles, NMQ (1 μM), NIO: No inhibition observed) was 89%, the “maximum inhibition of MDR1-mediated NMQ accumulation” value (MDR1; follow-up assay) was 89% and the IC50 (MDR1; follow-up assay, bottom constrained to 0) was 21 µM.
